Assays:
hSTING-HAQ [1] = biological target: T1, hSTING-HAQ (Homo sapiens (Human), UniProt Q86WV6, G230A/H232R/R293Q); assay: Radiometric filtration binding competition assay, hSTING-HAQ
Procedure: A radiometric filtration binding competition assay was performed to quantify the binding affinity of compounds of the present application for the human or mouse STING protein, or associated HAQ human isoform. […] The resulting dose response was fit by non-linear regression to determine an IC50 value, from which a Ki value for each compound was extrapolated.
The resulting complexes were then filtered, dried, and scintillation fluid was added and the remaining radio signal was measured to determine the degree of compound ligand inhibition. This assay format was optimized for both the WT and HAQ isoforms of the human protein and the mouse orthologue protein.
Probe Concentration: Minimum concentration that achieved max assay window • g. Assay Format: Scintillation Proximity Bead or Filtration Binding Plate • h. […] Assay incubation times for successive incubation steps
WT-hSWAT: WT_FBA_HIS-SUMO-hSWAT IC50 (μM) (“WT”=Wild-type); HAQ-hSWAT: HAQ_FBA_HIS-SUMO-hSWAT IC50 (μM) (“HAQ”=human HAQ allele of STING protein); and WT-mSWAT: MOUSE_FBA_HIS-SUMO-mnSWAT IC50 (μM) which is the mouse isoform of STING protein.

STING protein = STING protein (Homo sapiens (Human), UniProt Q86WV6, H232R); assay: Cell based reporter assay of IRF activation (IRF-luciferase), THP1-dual-KI R232; details: read-out: THP1-dual-KI R232_IRF(Luciferase)_Activity Maximum measured (%)
hSTING-HAQ [2] = biological target: T1, hSTING-HAQ; assay: STING differential scanning fluorimetry (DSF) assay, HAQ human STING; details: HAQ human STING aa140-379, net shift in melting temperature
Procedure: A STING DSF assay was performed to determine protein thermostability shift in response to small molecule ligand binding. A STING thermostability shift assay based on differential scanning fluorimetry was used to measure (1) the net shift in melting temperature (ΔTm)between the apo and ligand-bound states of the STING protein and (2) the concentration of the thermal denaturation transition (EC50) as a surrogate measure of binding affinity (K). […] Protein in assay buffer was transferred to a 384 well plate and incubated with the hydrophobic fluorescent dye SYBR Orange. A temperature ramp was applied to the plate and the resulting dye fluorescence was plotted as a function of temperature. The first derivative of this function (dF/dT) was then used to extrapolate the melting temperature of the protein at various concentrations of compound and determine the thermal denaturation profile of a protein/compound complex.
• 1. Protein construct (affinity tag removal vs SUMO-fusion construct) • 2. Protein concentration • 3. Dye concentration • 4. Buffer • 5. Thermal ramp velocity • 6. DMSO tolerance • 7. Compound titration parameters • 8. […] 5 μM purified Target STING Protein • 3. 8 μM Sypro Orange Dye • 4. Buffer: 100 mM NaCl, 30 mM HEPES, pH 7.5 • 5. Thermal Ramp: 0.5° C./min • 6. <1% DMSO • 7. 11 point, 2 fold dilution, duplicate, 300 μM high concentrations • 8.

hSTING-WT = hSTING-WT (Homo sapiens (Human), UniProt Q86WV6, H232R); assay: Radiometric filtration binding competition assay, hSTING-WT
Chain of hSTING-WT (Q86WV6 140-379 H232R): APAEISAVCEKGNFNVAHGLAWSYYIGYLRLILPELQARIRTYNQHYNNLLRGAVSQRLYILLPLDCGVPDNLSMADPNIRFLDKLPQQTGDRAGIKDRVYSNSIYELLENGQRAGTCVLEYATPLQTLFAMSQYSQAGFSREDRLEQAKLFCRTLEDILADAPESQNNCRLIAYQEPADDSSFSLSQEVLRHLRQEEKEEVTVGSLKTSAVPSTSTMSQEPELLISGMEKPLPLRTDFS

mSTING-R232 = mSTING-R232 (Mus musculus, UniProt Q3TBT3); assay: STING differential scanning fluorimetry (DSF) assay, mouse STING; details: net shift in melting temperature
hSTING-R232 = hSTING-R232 (Homo sapiens (Human), UniProt Q86WV6, H232R); assay: STING differential scanning fluorimetry (DSF) assay, WT human STING; details: WT (R232) human STING aa140-379, net shift in melting temperature
Chain of hSTING-R232 (Q86WV6 140-379 H232R): as above

mSTING = mSTING (Mus musculus, UniProt Q3TBT3); assay: Radiometric filtration binding competition assay, mSTING
hSTING-CTD = hSTING-CTD (Homo sapiens (Human), UniProt Q86WV6); assay: Human STING protein FP competition concentration response assay; type: binding
Chain of hSTING-CTD (Q86WV6 135-379): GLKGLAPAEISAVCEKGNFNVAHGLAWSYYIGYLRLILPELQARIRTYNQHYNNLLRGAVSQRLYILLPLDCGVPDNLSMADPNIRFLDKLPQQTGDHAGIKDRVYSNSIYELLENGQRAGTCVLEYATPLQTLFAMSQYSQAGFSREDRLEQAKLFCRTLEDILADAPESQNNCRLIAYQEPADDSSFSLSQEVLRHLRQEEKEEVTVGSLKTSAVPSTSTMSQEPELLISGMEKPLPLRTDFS
How it was run: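 Fluorescence polarization competition: recombinant hSTING-CTD (10 uM final) with 30 nM fluorescein-labeled c-di-GMP probe and titrated compound (2-fold, 14 points; 3.35% DMSO) in PBS, 10-20 min at r.t. Fluorescence anisotropy read; IC50 from 4-parameter logistic fit.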

T1 sequence (Q86WV6 140-379 G230A/H232R/R293Q): as the sequence (Q86WV6 140-379 H232R) above, with G91A, R154Q counted along it
Chain of STING protein (Q86WV6 whole entry H232R, the tested form may be a part): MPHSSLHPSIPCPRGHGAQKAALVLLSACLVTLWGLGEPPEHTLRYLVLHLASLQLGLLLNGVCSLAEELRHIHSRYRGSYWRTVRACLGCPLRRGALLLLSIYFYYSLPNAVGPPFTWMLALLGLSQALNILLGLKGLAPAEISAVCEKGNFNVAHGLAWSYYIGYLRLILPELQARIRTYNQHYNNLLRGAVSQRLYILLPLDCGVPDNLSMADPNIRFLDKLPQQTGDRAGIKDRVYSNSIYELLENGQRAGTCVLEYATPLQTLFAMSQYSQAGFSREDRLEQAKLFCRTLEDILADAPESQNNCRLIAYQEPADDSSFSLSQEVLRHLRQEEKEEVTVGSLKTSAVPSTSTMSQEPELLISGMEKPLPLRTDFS

| IC50 (hSTING-HAQ [1]) [µM] | Emax (STING protein) [%] | HAQ_DSF_hSWAT Tm Shift (° C.) (hSTING-HAQ [2]) | IC50 (hSTING-WT) [µM] | MOUSE DSF_6xHIS-SUMO Tm Shift (° C.) (mSTING-R232) | WT_DSF_hSWAT Tm Shift (° C.) (hSTING-R232) | IC50 (mSTING) [µM] | IC50 (hSTING-CTD) [µM] | SMILES |
| --- | --- | --- | --- | --- | --- | --- | --- | --- |
| 20 to 100 | > 50 | D (“D” > 7° C.) | < 20 | D (“D” > 15° C.) | D (“D” > 7° C.) | < 20 |  | O=C(O)Cn1c2cc(NC3CCCCC3)ccc2c(=O)c2ccc(Cl)c(Br)c21 [Compound 110] |
| 100 to 300 | > 50 | D (“D” > 7° C.) | 20 to 100 | C (“C” = 5-15° C.) | D (“D” > 7° C.) | 20 to 100 | < 100 | CC(C)c1ccc2c(=O)c3ccc(Cl)c(Br)c3n(CC(=O)O)c2c1 [Compound 111] |
| 100 to 300 | 25 to 50 | C (“C” = 2-7° C,) | 20 to 100 | D (“D” > 15° C.) | C (“C” = 2-7° C,) | < 20 | < 100 | O=C(O)Cn1c2cc(C3CCCCC3)ccc2c(=O)c2ccc(Cl)c(Cl)c21 [Compound 115] |
| 20 to 100 | > 50 | D (“D” > 7° C.) | < 20 | D (“D” > 15° C.) | D (“D” > 7° C.) | < 20 |  | O=C(O)Cn1c2cc(C3CCCCC3)ccc2c(=O)c2ccc(Cl)c(Br)c21 [Compound 147] |
| 20 to 100 | < 5 | C (“C” = 2-7° C,) | 20 to 100 | C (“C” = 5-15° C.) | B (“B” = 0-2° C.) | < 20 |  | Cc1cccc(-c2ccc3c(=O)c4ccc(Cl)c(Cl)c4n(CC(=O)O)c3c2)c1 [Compound 151] |
| 20 to 100 | 5 to 25 | A (“A” < 0° C.) | 20 to 100 | C (“C” = 5-15° C.) | A (“A” < 0° C.) | < 20 |  | CC1(C)CC=C(c2ccc3c(=O)c4ccc(Cl)c(Cl)c4n(CC(=O)O)c3c2)CC1 [Compound 159] |
| 20 to 100 | > 50 | D (“D” > 7° C.) | 20 to 100 | D (“D” > 15° C.) | D (“D” > 7° C.) | < 20 |  | CC(C)(C)c1ccc2c(=O)c3ccc(Cl)c(Br)c3n(CC(=O)O)c2c1 [Compound 176] |
| 20 to 100 | > 50 | D (“D” > 7° C.) | < 20 | D (“D” > 15° C.) | D (“D” > 7° C.) | < 20 |  | COc1c(Cl)ccc2c(=O)c3ccc(Nc4ccccc4)cc3n(CC(=O)O)c12 [Compound 207] |
